Reference: patent US11116735B2, “Use of substituted benzylideneguanidine derivatives as synergists for polymyxin antibiotics” (GUANGZHOU INSIGHTER BIOTECHNOLOGY CO., LTD., priority 2015, dated 2021)

What was measured:
[1] = tested on: E. coli 3B-24; experiment: MIC by doubling dilution, colistin sulfate-susceptible E. coli 3B-24; format: cell-based, Escherichia coli; conditions: for In vitro minimum inhibitory concentration (MIC) of the substance alone: E. coli 3B-24, colistin sulfate-susceptible, derivatives as hydrochlorides; for In vitro MIC of colistin sulfate in the presence of the substituted benzylideneguanidine derivative: E. coli 3B-24, culture comprised 20.0 ppm of the derivative (hydrochloride), colistin sulfate serially diluted
[2] = tested on: weanling piglets; experiment: Synergy of derivatives and colistin sulfate in the feed for weanling piglets; format: in vivo, Duroc×Landrace×Large crossbred lean weanling piglets; conditions: creep feed with 20 ppm colistin sulfate and 150 ppm derivative (hydrochloride), ten days
Description: 90 28-day-aged Duroc×Landrace×Large crossbred lean weanling piglets similar in weight were divided into 9 groups, 10 piglets in each group. For each group, colistin sulfate and/or various substituted benzylideneguanidine derivatives were added into the antibiotic-free creep feed. The piglets were given ad libitum access to feed and water during the experiment. Weight gain, feed efficiency and diarrhea rate of each group within ten days were recorded.

[3] = tested on: E. coli 3Y-9; experiment: MIC by doubling dilution, colistin sulfate-susceptible E. coli 3Y-9; format: cell-based, Escherichia coli; conditions: for In vitro minimum inhibitory concentration (MIC) of the substance alone: E. coli 3Y-9, colistin sulfate-susceptible, derivatives as hydrochlorides; for In vitro MIC of colistin sulfate in the presence of the substituted benzylideneguanidine derivative: E. coli 3Y-9, culture comprised 20.0 ppm of the derivative (hydrochloride), colistin sulfate serially diluted
[4] = tested on: E. coli 5F-1; experiment: MIC by doubling dilution, colistin sulfate-resistant E. coli 5F-1; conditions: for In vitro minimum inhibitory concentration (MIC) of the substance alone: E. coli 5F-1, colistin sulfate-resistant, derivatives as hydrochlorides; for In vitro MIC of colistin sulfate in the presence of the substituted benzylideneguanidine derivative: E. coli 5F-1, resistant, culture comprised 20.0 ppm of the derivative (hydrochloride)
Description: (§1) In vitro minimum inhibitory concentrations of colistin sulfate against the strains where the cultures respectively comprised 20.0 ppm of the substituted benzylideneguanidine derivatives were also measured.

[5] = tested on: E. coli 2G-7; experiment: MIC by doubling dilution, colistin sulfate-resistant E. coli 2G-7; conditions: for In vitro minimum inhibitory concentration (MIC) of the substance alone: E. coli 2G-7, colistin sulfate-resistant, derivatives as hydrochlorides; for In vitro MIC of colistin sulfate in the presence of the substituted benzylideneguanidine derivative: E. coli 2G-7, resistant, culture comprised 20.0 ppm of the derivative (hydrochloride)
Description: as §1

[6] = tested on: E. coli 3H-4; experiment: MIC by doubling dilution, colistin sulfate-resistant E. coli 3H-4; conditions: for In vitro minimum inhibitory concentration (MIC) of the substance alone: E. coli 3H-4, colistin sulfate-resistant, derivatives as hydrochlorides; for In vitro MIC of colistin sulfate in the presence of the substituted benzylideneguanidine derivative: E. coli 3H-4, resistant, culture comprised 20.0 ppm of the derivative (hydrochloride)
Description: as §1

[7] = tested on: E. coli 4D-6; experiment: MIC by doubling dilution, colistin sulfate-resistant E. coli 4D-6; conditions: for In vitro minimum inhibitory concentration (MIC) of the substance alone: E. coli 4D-6, colistin sulfate-resistant, derivatives as hydrochlorides; for In vitro MIC of colistin sulfate in the presence of the substituted benzylideneguanidine derivative: E. coli 4D-6, resistant, culture comprised 20.0 ppm of the derivative (hydrochloride)
Description: as §1

[8] = tested on: E. coli 5W-7; experiment: MIC by doubling dilution, colistin sulfate-susceptible E. coli 5W-7; format: cell-based, Escherichia coli; conditions: for In vitro minimum inhibitory concentration (MIC) of the substance alone: E. coli 5W-7, colistin sulfate-susceptible, derivatives as hydrochlorides; for In vitro MIC of colistin sulfate in the presence of the substituted benzylideneguanidine derivative: E. coli 5W-7, culture comprised 20.0 ppm of the derivative (hydrochloride), colistin sulfate serially diluted
[9] = tested on: E. coli 2S-19; experiment: MIC by doubling dilution, colistin sulfate-susceptible E. coli 2S-19; format: cell-based, Escherichia coli; conditions: for In vitro minimum inhibitory concentration (MIC) of the substance alone: E. coli 2S-19, colistin sulfate-susceptible, derivatives as hydrochlorides; for In vitro MIC of colistin sulfate in the presence of the substituted benzylideneguanidine derivative: E. coli 2S-19, culture comprised 20.0 ppm of the derivative (hydrochloride), colistin sulfate serially diluted

Structure (SMILES) | In vitro minimum inhibitory concentration (MIC) of the substance alone [1] | In vitro MIC of colistin sulfate in the presence of the substituted benzylideneguanidine derivative [1] | Average daily weight gain [2] | Diarrhea rate [2] | Feed conversion ratio [2] | In vitro minimum inhibitory concentration (MIC) of the substance alone [3] | In vitro MIC of colistin sulfate in the presence of the substituted benzylideneguanidine derivative [3] | In vitro minimum inhibitory concentration (MIC) of the substance alone [4] | In vitro MIC of colistin sulfate in the presence of the substituted benzylideneguanidine derivative [4] | In vitro minimum inhibitory concentration (MIC) of the substance alone [5] | In vitro MIC of colistin sulfate in the presence of the substituted benzylideneguanidine derivative [5] | In vitro minimum inhibitory concentration (MIC) of the substance alone [6] | In vitro MIC of colistin sulfate in the presence of the substituted benzylideneguanidine derivative [6] | In vitro minimum inhibitory concentration (MIC) of the substance alone [7] | In vitro MIC of colistin sulfate in the presence of the substituted benzylideneguanidine derivative [7] | In vitro minimum inhibitory concentration (MIC) of the substance alone [8] | In vitro MIC of colistin sulfate in the presence of the substituted benzylideneguanidine derivative [8] | In vitro minimum inhibitory concentration (MIC) of the substance alone [9] | In vitro MIC of colistin sulfate in the presence of the substituted benzylideneguanidine derivative [9]
COc1ccc(C=NN=C(N)NN=Cc2ccc(OC)cc2)cc1 [Compound 1] | >800 ppm | 1.00 ppm | 243 g | 18% | 1.529 | >800 ppm | 1.00 ppm | >800 ppm | 2.0 ppm | >800 ppm | 1.0 ppm | >800 ppm | 2.0 ppm | >800 ppm | 4.0 ppm | >800 ppm | 0.50 ppm | >800 ppm | 1.00 ppm
CCCCCCCCOc1ccc(C=NNC(=N)NN=Cc2ccc(OCCCCCCCC)cc2)cc1 [Compound 4] | >800 ppm | 1.00 ppm | 239 g | 19% | 1.532 | >800 ppm | 1.00 ppm | >800 ppm | 8.0 ppm | >800 ppm | 4.0 ppm | >800 ppm | 4 ppm | >800 ppm | 16 ppm | >800 ppm | 0.50 ppm | >800 ppm | 1.00 ppm
CCC(CC)Oc1ccc(C=NN=C(N)NN=Cc2ccc(OC(CC)CC)cc2)cc1 [Compound 5] | >800 ppm | 2.00 ppm | 231 g | 25% | 1.565 | >800 ppm | 2.00 ppm | >800 ppm | 16 ppm | >800 ppm | 8 ppm | >800 ppm | 8 ppm | >800 ppm | 32 ppm | >800 ppm | 1.00 ppm | >800 ppm | 1.00 ppm
N=C(NN=Cc1ccc(OCc2ccccc2)cc1)NN=Cc1ccc(OCc2ccccc2)cc1 [Compound 7] | >800 ppm | 2.00 ppm | 240 g | 16% | 1.576 | >800 ppm | 2.00 ppm | >800 ppm | 8 ppm | >800 ppm | 8 ppm | >800 ppm | 8 ppm | >800 ppm | 32 ppm | >800 ppm | 1.00 ppm | >800 ppm | 2.00 ppm
N=C(N/N=C/c1ccc(Cl)cc1)N/N=C/c1ccc(Cl)cc1 [Compound 8] | >800 ppm | 1.00 ppm | 220 g | 33% | 1.608 | >800 ppm | 1.00 ppm | >800 ppm | 8 ppm | >800 ppm | 4 ppm | >800 ppm | 4 ppm | >800 ppm | 16 ppm | >800 ppm | 0.50 ppm | >800 ppm | 1.00 ppm
N=C(NN=Cc1ccc([N+](=O)[O-])cc1)NN=Cc1ccc([N+](=O)[O-])cc1 [Compound 15] | >800 ppm | 1.00 ppm | – | – | – | >800 ppm | 1.00 ppm | >800 ppm | 8 ppm | >800 ppm | 4 ppm | >800 ppm | 4 ppm | >800 ppm | 16 ppm | >800 ppm | 0.50 ppm | >800 ppm | 1.00 ppm
N=C(NN=Cc1ccc(OC(F)(F)F)cc1)NN=Cc1ccc(OC(F)(F)F)cc1 [Compound 16] | >800 ppm | 1.00 ppm | – | – | – | >800 ppm | 2.00 ppm | >800 ppm | 16 ppm | >800 ppm | 8 ppm | >800 ppm | 8 ppm | >800 ppm | 32 ppm | >800 ppm | 0.50 ppm | >800 ppm | 1.00 ppm
